Assay: RP, Waters SunFire C18, 50 × 4.6 mm, 3.5 µm, 0.5 mL/min, estimated dead time 1.1 min; A: water + 0.1% formic acid; B: acetonitrile + 0.1% formic acid; gradient (min/%B) 0/5 7/100 8/100
Conditions: stereoisomer not certain

Structure (SMILES) | LC retention time
CCCCCc1cc(O)cc(O)c1C(=O)O | 5.24 min
O=C1OC2=C(c3ccccc3)C(=O)OC2=C1c1ccccc1 | 7.64 min
COc1cc(OC(=O)c2c(C)cc(O)cc2O)cc(C)c1C(=O)Oc1cc(C)c(C(=O)O)c(O)c1 | 6.2 min
Cc1cc(O)cc2oc3cc(O)c4c(c3c12)COC4=O | 4.72 min
COc1cc(C)c(C)c(OC(=O)c2c(C)c(C=O)c(O)c(C=O)c2O)c1C | 6.73 min
COC12CC(=O)C(C(C)=O)=C(O)C1(C)c1c(O)c(C(C)=O)c(O)c(C)c1O2 (configuration not stated) | 6.88 min
COC(=O)c1c(C)c(C)c(OC(=O)c2c(C)c(C)c(O)c(C=O)c2O)c(C)c1O | 7.84 min
Cc1cc(O)c(C)c(O)c1 | 3.25 min
COc1cc(C)c(C(=O)Oc2cc(C)c(C(=O)O)c(O)c2C)c(O)c1C(=O)O | 5.79 min
O=C1C(O)=C(c2ccccc2)C(=O)C(O)=C1c1ccccc1 | 5.71 min
Cc1cc(O)c2c(c1)C(=O)c1c(c(O)cc(O)c1-c1c(C)cc(O)c3c1C(=O)c1cc(O)cc(O)c1C3=O)C2=O | 6.58 min
CCCCCc1cc(OC)cc(O)c1C(=O)Oc1cc(O)c(C(=O)O)c(CCC)c1 | 7.47 min
COc1cc(C)c(C(=O)Oc2cc(C)c(C(=O)O)c(O)c2)c(O)c1 | 6 min
COC(=O)C(=C1OC(=O)C(c2ccccc2)=C1O)c1ccccc1 | 7.49 min
O=C(O)c1cc(O)c2c(c1)C(=O)c1cc(O)cc(O)c1C2=O | 5.06 min
COc1cc(C)c(C(=O)Oc2c(C)c(C(=O)O)c(O)c(C=O)c2O)c(O)c1C(=O)O | 5.8 min
Cc1cc(OC(=O)c2c(C)cc(O)cc2O)cc(O)c1C(=O)O | 5.3 min
COc1cc(O)cc(C)c1C(=O)Oc1cc(C)c(C(=O)Oc2cc(C)c(C(=O)O)c(O)c2)c(O)c1 | 6.17 min
COC(=O)c1c(C)cc(O)c(C)c1O | 5.37 min
COc1cc(OC)c2c(=O)cc(C)oc2c1C | 4.51 min

Structure (SMILES) | LC retention time
COc1cc(C)c(C(=O)Oc2cc(C)c(C(=O)O)c(O)c2)c(O)c1C | 6.54 min
Cc1cc(=O)c2c(O)c3c(cc2o1)C(=O)C(=O)C=C3O | 3.87 min
COc1cc(C)c(C(=O)Oc2c(C)cc(O)c(C=O)c2O)c(O)c1C(=O)O | 5.7 min
Cc1cc(O)c(C=O)c(O)c1C(=O)OCc1cc(O)c(C)c(O)c1C(=O)O | 6.74 min
COC(=O)c1c(OC)cc2oc3c(C(=O)O)c(C)cc(OC)c3c2c1C | 5.63 min
Cc1cc(OC(=O)c2c(C)cc(O)c(O)c2O)cc(O)c1C(=O)O | 4.69 min
COC(=O)C(CC(C)C)NC(=O)C(=C1OC(=O)C(c2ccccc2)=C1O)c1ccccc1 (configuration not stated) | 7.82 min
Cc1cc(O)c(C=O)c(O)c1C(=O)OCc1cc(O)c(C=O)c(O)c1C(=O)O | 7.26 min
COc1cc(C)c(C(=O)Oc2c(C)c(C(=O)O)c(O)c(C=O)c2O)c(O)c1C=O | 6.37 min
O=C1OC(=C2C(=O)Oc3ccccc32)C(O)=C1c1ccccc1 | 7.68 min
Cc1cc(O)c2c(c1)C(=O)c1cccc(O)c1C2=O | 6.39 min
CC(=O)c1c(O)cc(O)cc1O | 3.77 min
Cc1cc(O)c2c(c1)C(=O)c1c(c(O)cc(O)c1-c1c(O)cc(O)c3c1C(=O)c1cc(C)cc(O)c1C3=O)C2=O | 6.57 min
OCC(O)C(O)CO (configuration not stated) | 4.05 min
COc1cc(C)c(C(=O)Oc2cc(C)c(C(=O)O)c(O)c2C)c(O)c1C | 7.26 min
COc1cc(O)c2c(c1)C(=O)c1cc(C(=O)O)cc(O)c1C2=O | 5.72 min
Cc1cc(OC(=O)c2c(C)cc(OC(=O)c3c(C)cc(O)cc3O)cc2O)cc(O)c1C(=O)O | 6.53 min
COc1cc(O)c2c(c1)C(=O)c1cc(C=O)cc(O)c1C2=O | 6 min
CCCc1cc(O)cc(O)c1 | 3.97 min
O=C1c2oc3cc(O)c(O)cc3c2C(=O)c2oc3cc(O)c(O)cc3c21 | 4.52 min

Now from value to compound:

LC retention time | Structure (SMILES)
4.27 min | COC1=C(O)c2cc3oc(C(C)=O)c(O)c3c(O)c2C(=O)C1=O
7.52 min | CCCCCc1cc(OC(=O)c2c(CCCCC)cc(OC)cc2OC)cc(OC)c1C(=O)O
6.62 min | CCCCCC(=O)Cc1cc(O)c(O)c2c1C(=O)Oc1cc(O)c(C(=O)O)c(CCCCC)c1O2
6.35 min | CC(=O)OC(C)CC1CC(OC(C)=O)C(C)C(O)C(C)C(=O)OC(CC(C)OC(C)=O)CC(OC(C)=O)C(C)C(O)C(C)C(=O)O1 (configuration not stated)
7.1 min | CCCCCC(=O)Cc1cc(OC)cc(O)c1C(=O)Oc1cc(CCCCC)c(C(=O)O)c(OC)c1
5.27 min | Cc1cc(O)c(C)c2c1C(=O)Oc1cc(O)c(C(=O)O)c(C)c1O2
5.25 min | CCCc1cc(OC)cc(O)c1C(=O)O
7.64 min | CCCCCC(=O)Cc1cc(O)cc2c1C(=O)Oc1cc(O)c(C(=O)O)c(CC(=O)CCCCC)c1O2
3.95 min | Cc1cc(O)c2c(oc3cc(O)c4c(c32)COC4=O)c1C(=O)O
8 min | CCCCCCCCCCCCCC1OC(=O)C(C)C1C(=O)O (configuration not stated)
6.04 min | Cc1cc(O)c(C=O)c2c1C(=O)Oc1c(COC(=O)C=CC(=O)O)c(O)c(C(=O)O)c(C)c1O2
6.54 min | CCCCCc1cc(O)cc(OC)c1C(=O)Oc1c(O)cc(CCCCC)c(C(=O)O)c1O
7.28 min | CCCCCc1cc(OC(=O)c2c(O)cc(O)cc2CCCCC)cc(O)c1C(=O)O
5.63 min | Cc1cc(O)c(C)c2c1C(=O)Oc1c(C)c(O)c(C(=O)O)c(C)c1O2
6.74 min | CCCCCC(=O)Cc1cc(O)cc(O)c1C(=O)Oc1cc(O)c(C(=O)O)c(CCCCC)c1
6.92 min | CCCC(=O)Cc1cc(OC(=O)c2c(O)cc(OC)cc2CC(=O)CCC)cc(O)c1C(=O)O
7.11 min | CCCc1cc(OC)cc(O)c1C(=O)Oc1c(O)cc(CCC)c(C(=O)OC)c1O
6.03 min | CCCCCC(=O)Cc1cc(O)cc(O)c1C(=O)Oc1cc(CC(=O)CCCCC)c(C(=O)O)c(OC)c1
7.26 min | CC(C)CC(NC(=O)C(=C1OC(=O)C(c2ccccc2)=C1O)c1ccccc1)C(=O)O (configuration not stated)
5.9 min | CC(=O)OCC1OC(Oc2cc(O)c3c(=O)cc(C)oc3c2C)C(OC(C)=O)C(OC(C)=O)C1OC(C)=O (configuration not stated)
6.9 min | CC(=O)CCCCCCCCCCCCCC1OC(=O)C(C)=C1C(=O)O (configuration not stated)
7.83 min | CCC(C)CC(C)C(O)C(C)C(=O)OC(C(C)CC(C)CC)C(C)C(=O)O (configuration not stated)
6.95 min | CCCCCC(=O)Cc1cc(OC)c(O)c2c1C(=O)Oc1cc(O)c(C(=O)O)c(CCCCC)c1O2
6.17 min | CCC(C)C(NC(=O)c1ccccc1)C(=O)OCC(NC(=O)c1ccccc1)C(C)C (configuration not stated)
6.53 min | C=C1C(=O)OC(CCCCCCCCCCCCCC(C)O)C1C(=O)O (configuration not stated)
4.06 min | COc1cc(C)c2c(c1C=O)Oc1c(c(CO)c(O)c3c1C(O)OC3=O)OC2=O (configuration not stated)

LC retention time | Structure (SMILES)
5.65 min | CC1CCCCCCCCCCC(O)C(O)C(O)C=CC(=O)O1 (configuration not stated)
5.81 min | CCCCCc1c(Oc2cc(OC)cc3c2C(=O)OC3(O)CCCC)c(O)cc(O)c1C(=O)O (configuration not stated)
8 min | CC1C(=O)OC(CCCCCCCCCC(C)(C)C)C1C(=O)O (configuration not stated)
5.99 min | COCc1c(O)c(C(=O)O)c(C)c2c1OC(=O)c1c(C)cc(O)c(C=O)c1O2
7.09 min | CCCCCc1c(C(=O)O)c(O)cc2oc3cc(OC)cc(CCC)c3c12
5.25 min | CC1OC2(C(C)C(O)C1C)C(C)C1OC(=O)C2(C)C(=O)C1C (configuration not stated)
4 min | CC(=O)OC1C(Oc2cc3oc(C)cc(=O)c3c(O)c2C)OC(CO)C(O)C1O (configuration not stated)
5.09 min | COc1cc(C)c(C(=O)O)c(O)c1C
7.89 min | CC1CCC2(C(=O)O)CCC3(C)C(=CCC4C5(C)CCC(O)C(C)(C)C5CCC43C)C2C1C (configuration not stated)
5.08 min | COc1cc(C(=O)O)c2c(c1C)OC(=O)c1c(C)cc(O)c(C=O)c1O2
6.19 min | CCCCCc1cc(OC)cc(O)c1C(=O)O
4.5 min | COc1c(O)c(O)c2c(c1O)C(=O)c1oc(C(C)=O)c(O)c1C2=O
7.46 min | CCCCCCCCCCCCCCC(C(=O)O)C(CC(=O)O)C(=O)O (configuration not stated)
7.27 min | CCOCc1c(O)c(C(=O)O)c(C)c2c1OC(=O)c1c(C)cc(O)c(C=O)c1O2
4.2 min | CC(=O)OCC1OC(Oc2c(C)c(O)c3c(=O)cc(C)oc3c2C)C(O)C(O)C1O (configuration not stated)
5.84 min | CC(=O)OC1C(C)C(C)OC2(C(C)C3OC(=O)C2(C)C(=O)C3C)C1C (configuration not stated)
5.4 min | CC(=O)OCC1OC(Oc2cc(O)c3c(=O)cc(C)oc3c2C)C(OC(C)=O)C(OC(C)=O)C1O (configuration not stated)
7.31 min | CCCCCc1cc(OC(=O)c2c(O)cc(OC)cc2CCC(=O)CC)cc(O)c1C(=O)O
6.08 min | CCCCCc1cc2cc(O)cc(O)c2c(=O)o1
6.84 min | CCCCCc1cc(O)c(OC(=O)c2c(CCC)cc(OC)cc2OC)c(O)c1C(=O)O
4.69 min | CC(=O)OCC1OC(Oc2cc3oc(C)cc(=O)c3c(O)c2C)C(OC(C)=O)C(O)C1O (configuration not stated)
6.28 min | Cc1cc(O)c(C=O)c2c1C(=O)Oc1c(COC(=O)CCC(=O)O)c(O)c(C(=O)O)c(C)c1O2
7.46 min | CCCCCCCCCCCC1OC(=O)C(C)C1C(=O)O (configuration not stated)
4.51 min | Cc1cc(O)c(C=O)c2c1C(=O)Oc1c(CO)c(O)c3c(c1O2)C(O)OC3=O (configuration not stated)
8 min | CCCCCCCCCCCCCCC(C(=O)OC)C(CC(=O)O)C(=O)O (configuration not stated)
6.6 min | CCCCCc1cc(OC(=O)c2c(CCCCC)cc(O)cc2OC)cc(OC)c1C(=O)O

From the RepoRT retention time repository (doi:10.1038/s41597-019-0305-1)
